From patent publication US7767665B2, “1,3-benzothiazinone derivatives and use thereof” (Takeda Pharmaceutical Company Limited, priority 2001, dated 2010)

| melting point [°C] | SMILES |
| --- | --- |
| 181.9 to 182.5 | O=c1nc(-c2cccc(CSc3ccncc3)n2)sc2ccccc12 [Example 273, 2-{6-[(4-pyridylthio)methyl]-2-pyridyl}-4H-1,3-benzothiazine-4-one] |
| 202.4 to 202.9 | CSc1cncc(-c2nc(=O)c3ccccc3s2)n1 [Example 287, 2-[6-(Methylthio)-2-pyrazinyl]-4H-1,3-benzothiazine-4-one] |
| 257.5 to 259.1 | O=C(O)CCc1ccnc(-c2nc(=O)c3ccc(Br)cc3s2)c1 [Example 188, 3-[2-(7-Bromo-4-oxo-4H-1,3-benzothiazin-2-yl)-4-pyridyl]propionic acid] |
| 276.3 to 276.7 | CC(=O)c1ccc(-c2nc(=O)c3ccccc3s2)nc1 [Example 145, 2-(5-Acetyl-2-pyridyl)-4H-1,3-benzothiazine-4-one] |
| 283 to 284 | O=C(O)CNc1nccc(-c2nc(=O)c3ccccc3s2)n1 [Example 296, {[6-(4-Oxo-4H-1,3-benzothiazin-2-yl)-2-pyrimidinyl]amino}acetic acid] |
| 283.4 to 283.6 | N#Cc1ccnc(-c2nc(=O)c3ccccc3s2)c1 [Example 143, 2-(4-Cyano-2-pyridyl)-4H-1,3-benzothiazine-4-one] |
| 234.8 to 236.4 | O=C(NCCc1cccc(-c2nc(=O)c3ccccc3s2)n1)Nc1ccccc1 [Example 227, N-[2-[6-(4-Oxo-4H-1,3-benzothiazin-2-yl)-2-pyridyl]ethyl]-N′-phenylurea] |
| 230.1 to 230.3 | CN(C)C(=O)Nc1cccc(-c2nc(=O)c3ccccc3s2)n1 [Example 231, N,N-Dimethyl-N′-[6-(4-oxo-4H-1,3-benzothiazin-2-yl)-2-pyridyl]urea] |
| 160 to 161 | CCCCCS(=O)(=O)c1cccc(-c2nc(=O)c3ccccc3s2)n1 [Example 156, 2-[6-(n-Pentylsulfonyl)-2-pyridyl]-4H-1,3-benzothiazine-4-one] |
| 170.7 to 171.5 | Cc1cccc2c(=O)nc(-c3cccc(C(=O)NCCCCCCNC(=O)OC(C)(C)C)n3)sc12 [Example 234, tert-Butyl 6-[[[6-(8-methyl-4-oxo-4H-1,3-benzothiazin-2-yl)-2-pyridyl]carbonyl]amino]hexylcarbamate] |
| 235.9 to 236.7 | CCOC(=O)c1ccnc(-c2nc(=O)c3ccccc3s2)c1 [Example 27, Ethyl 2-(4-oxo-4H-1,3-benzothiazin-2-yl)isonicotinate] |
| 145.5 to 147 | CC(C)CCS(=O)(=O)c1cccc(-c2nc(=O)c3ccccc3s2)n1 [Example 158, 2-(6-Isoamylsulfonyl-2-pyridyl)-4H-1,3-benzothiazine-4-one] |
| 233.6 to 234.7 | CC(C)(C)S(=O)(=O)c1cccc(-c2nc(=O)c3ccccc3s2)n1 [Example 154, 2-[6-(tert-Butylsulfonyl)-2-pyridyl]-4H-1,3-benzothiazine-4-one] |
| 168.2 to 169.2 | CC(C)(C)OC(=O)NCCc1ccnc(-c2nc(=O)c3ccc(Cl)cc3s2)c1 [Example 219, tert-Butyl 2-[2-(7-chloro-4-oxo-4H-1,3-benzothiazin-2-yl)-4-pyridyl]ethylcarbamate] |
| 149.5 to 151 | COC(=O)C[S+]([O-])Cc1cccc(-c2nc(=O)c3ccccc3s2)n1 (stereo not drawn) [Example 259, Methyl ({[6-(4-oxo-4H-1,3-benzothiazin-2-yl)-2-pyridyl]methyl}sulfinyl)acetate] |
| 156.6 to 157 | O=c1nc(-c2cccc(CCc3nnn[nH]3)n2)sc2ccccc12 [Example 305, 2-{6-[2-(1H-1,2,3,4-tetrazol-5-yl)ethyl]-2-pyridyl}-4H-1,3-benzothiazine-4-one] |
| 178.3 to 179 | N#CCCc1ccnc(-c2nc(=O)c3ccccc3s2)c1 [Example 317, 3-[2-(4-Oxo-4H-1,3-benzothiazin-2-yl)-4-pyridyl]propionitrile] |
| 232 to 233 | CS(=O)(=O)c1cncc(-c2nc(=O)c3ccccc3s2)n1 [Example 289, 2-[6-(Methylsulfonyl)-2-pyrazinyl]-4H-1,3-benzothiazine-4-one] |
